Test results: PubChem BioAssay (NCI)
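Following 48 hours of exposure in 96-well plates, responses at five concentrations were used to interpolate endpoints linearly. Here, GI50 denotes the concentration required for 50% inhibition of growth. TGI marks complete inhibition of growth.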

Tests used:
Assay in all cases: NCI anticancer screen, dose series, 48 h
MALME-3M melanoma = test system: MALME-3M melanoma
RXF 393 renal = test system: RXF 393 renal
HT29 colon = test system: HT29 colon
SK-MEL-5 melanoma = test system: SK-MEL-5 melanoma
SNB-75 CNS = test system: SNB-75 CNS
HL-60(TB) leukemia = test system: HL-60(TB) leukemia
DU-145 prostate = test system: DU-145 prostate
EKVX NSCLC = test system: EKVX NSCLC
M14 melanoma = test system: M14 melanoma
UO-31 renal = test system: UO-31 renal
NCI-H226 lung = test system: NCI-H226 lung
OVCAR-4 ovarian = test system: OVCAR-4 ovarian
NCI/ADR-RES ovarian = test system: NCI/ADR-RES ovarian
NCI-H23 lung = test system: NCI-H23 lung
SR leukemia = test system: SR leukemia
K-562 leukemia = test system: K-562 leukemia
SK-OV-3 ovarian = test system: SK-OV-3 ovarian
KM12 colon = test system: KM12 colon
UACC-257 melanoma = test system: UACC-257 melanoma
SNB-19 CNS = test system: SNB-19 CNS
UACC-62 melanoma = test system: UACC-62 melanoma
HOP-62 NSCLC = test system: HOP-62 NSCLC
RPMI-8226 leukemia = test system: RPMI-8226 leukemia
SF-268 CNS = test system: SF-268 CNS
BT-549 breast = test system: BT-549 breast
IGROV1 ovarian = test system: IGROV1 ovarian
SK-MEL-28 melanoma = test system: SK-MEL-28 melanoma
HS 578T breast = test system: HS 578T breast
A498 renal = test system: A498 renal
COLO 205 colon = test system: COLO 205 colon
HCT-15 colon = test system: HCT-15 colon
SF-295 CNS = test system: SF-295 CNS
LOX IMVI melanoma = test system: LOX IMVI melanoma
OVCAR-3 ovarian = test system: OVCAR-3 ovarian
SW-620 colon = test system: SW-620 colon
MDA-MB-435 = test system: MDA-MB-435
PC-3 prostate = test system: PC-3 prostate
SN12C renal = test system: SN12C renal
786-0 renal = test system: 786-0 renal
CCRF-CEM leukemia = test system: CCRF-CEM leukemia
T-47D breast = test system: T-47D breast
SF-539 CNS = test system: SF-539 CNS
MOLT-4 leukemia = test system: MOLT-4 leukemia
MCF7 breast = test system: MCF7 breast
SK-MEL-2 melanoma = test system: SK-MEL-2 melanoma
U251 CNS = test system: U251 CNS
TK-10 renal = test system: TK-10 renal
HOP-92 NSCLC = test system: HOP-92 NSCLC
HCC-2998 colon = test system: HCC-2998 colon
A549 NSCLC = test system: A549 NSCLC
OVCAR-8 ovarian = test system: OVCAR-8 ovarian
CAKI-1 renal = test system: CAKI-1 renal
HCT-116 colon = test system: HCT-116 colon
OVCAR-5 ovarian = test system: OVCAR-5 ovarian
ACHN renal = test system: ACHN renal
NCI-H460 lung = test system: NCI-H460 lung
MDA-MB-231 breast = test system: MDA-MB-231 breast
NCI-H522 lung = test system: NCI-H522 lung

`COc1ccccc1/C=N\N/C(N)=N\N=C\c1ccccc1OC` was tested, and the GI50 (MALME-3M melanoma) was 237 nM, the TGI (MALME-3M melanoma) was 5200 nM and the GI50 (RXF 393 renal) was 265 nM. It also gave a TGI (RXF 393 renal) of over 100000 nM, a GI50 (HT29 colon) of 382 nM and a TGI (HT29 colon) of over 55800 nM. The GI50 (SK-MEL-5 melanoma) was 371 nM, the TGI (SK-MEL-5 melanoma) was 4140 nM and the GI50 (SNB-75 CNS) was 149 nM. For the same molecule, the TGI (SNB-75 CNS) was over 48500 nM, the GI50 (HL-60(TB) leukemia) was 215 nM and the TGI (HL-60(TB) leukemia) was 558 nM. The GI50 (DU-145 prostate) was 386 nM, the TGI (DU-145 prostate) was 2730 nM and the GI50 (EKVX NSCLC) was 574 nM. It also gave a TGI (EKVX NSCLC) of 14300 nM, a GI50 (M14 melanoma) of 266 nM and a TGI (M14 melanoma) of 3130 nM. For the same molecule, the GI50 (UO-31 renal) was 2310 nM, the TGI (UO-31 renal) was over 23100 nM and the GI50 (NCI-H226 lung) was 8310 nM. The TGI (NCI-H226 lung) was over 47000 nM, the GI50 (OVCAR-4 ovarian) was 1050 nM and the TGI (OVCAR-4 ovarian) was over 100000 nM. The GI50 (NCI/ADR-RES ovarian) was 390 nM, the GI50 (NCI-H23 lung) was 618 nM and the TGI (NCI-H23 lung) was over 31200 nM. The GI50 (SR leukemia) was 31.9 nM, the TGI (SR leukemia) was 740 nM and the GI50 (K-562 leukemia) was 263 nM. The TGI (K-562 leukemia) was 1700 nM, the GI50 (SK-OV-3 ovarian) was 484 nM and the TGI (SK-OV-3 ovarian) was 7620 nM. For the same molecule, the GI50 (KM12 colon) was 264 nM, the TGI (KM12 colon) was 1360 nM and the GI50 (UACC-257 melanoma) was 4290 nM. For the same molecule, the TGI (UACC-257 melanoma) was over 23600 nM, the GI50 (SNB-19 CNS) was 376 nM and the TGI (SNB-19 CNS) was 27700 nM. It also gave a GI50 (UACC-62 melanoma) of 497 nM, a TGI (UACC-62 melanoma) of over 40700 nM and a GI50 (HOP-62 NSCLC) of 586 nM. For the same molecule, the TGI (HOP-62 NSCLC) was 6680 nM, the GI50 (RPMI-8226 leukemia) was 281 nM and the TGI (RPMI-8226 leukemia) was 806 nM. For the same molecule, the GI50 (SF-268 CNS) was 432 nM, the TGI (SF-268 CNS) was 26900 nM and the GI50 (BT-549 breast) was 785 nM. For the same molecule, the TGI (BT-549 breast) was 3560 nM, the GI50 (IGROV1 ovarian) was 923 nM and the GI50 (SK-MEL-28 melanoma) was 2640 nM. It also gave a TGI (SK-MEL-28 melanoma) of 28400 nM, a GI50 (HS 578T breast) of 447 nM and a TGI (HS 578T breast) of 38700 nM. It also gave a GI50 (A498 renal) of 372 nM, a TGI (A498 renal) of 19400 nM and a GI50 (COLO 205 colon) of 232 nM. For the same molecule, the TGI (COLO 205 colon) was 631 nM, the GI50 (HCT-15 colon) was 465 nM and the TGI (HCT-15 colon) was over 37500 nM. For the same molecule, the GI50 (SF-295 CNS) was under 47.8 nM, the TGI (SF-295 CNS) was 163 nM and the GI50 (LOX IMVI melanoma) was 2400 nM. For the same molecule, the TGI (LOX IMVI melanoma) was over 39500 nM, the GI50 (OVCAR-3 ovarian) was 157 nM and the TGI (OVCAR-3 ovarian) was 393 nM. The GI50 (SW-620 colon) was 376 nM, the TGI (SW-620 colon) was 18900 nM and the GI50 (MDA-MB-435) was 23.5 nM. It also gave a TGI (MDA-MB-435) of 82.4 nM, a GI50 (PC-3 prostate) of 476 nM and a TGI (PC-3 prostate) of over 66200 nM. The GI50 (SN12C renal) was 1700 nM, the TGI (SN12C renal) was over 46800 nM and the GI50 (786-0 renal) was 609 nM. For the same molecule, the TGI (786-0 renal) was 5010 nM, the GI50 (CCRF-CEM leukemia) was 323 nM and the TGI (CCRF-CEM leukemia) was 2080 nM. It also gave a GI50 (T-47D breast) of 457 nM, a TGI (T-47D breast) of 7360 nM and a GI50 (SF-539 CNS) of 264 nM. For the same molecule, the TGI (SF-539 CNS) was 1020 nM, the GI50 (MOLT-4 leukemia) was 355 nM and the TGI (MOLT-4 leukemia) was 3900 nM. For the same molecule, the GI50 (MCF7 breast) was 254 nM, the TGI (MCF7 breast) was 4360 nM and the GI50 (SK-MEL-2 melanoma) was 527 nM. The TGI (SK-MEL-2 melanoma) was 10300 nM, the GI50 (U251 CNS) was 1020 nM and the TGI (U251 CNS) was over 39900 nM. For the same molecule, the GI50 (TK-10 renal) was 524 nM, the TGI (TK-10 renal) was 8890 nM and the GI50 (HOP-92 NSCLC) was 578 nM. The TGI (HOP-92 NSCLC) was 31600 nM, the GI50 (HCC-2998 colon) was 1030 nM and the TGI (HCC-2998 colon) was 11300 nM. For the same molecule, the GI50 (A549 NSCLC) was 1550 nM, the TGI (A549 NSCLC) was over 100000 nM and the GI50 (OVCAR-8 ovarian) was 301 nM. For the same molecule, the TGI (OVCAR-8 ovarian) was 17500 nM, the GI50 (CAKI-1 renal) was 207 nM and the TGI (CAKI-1 renal) was 4110 nM. It also gave a GI50 (HCT-116 colon) of 358 nM, a TGI (HCT-116 colon) of 5550 nM and a GI50 (OVCAR-5 ovarian) of 3360 nM. The TGI (OVCAR-5 ovarian) was over 100000 nM, the GI50 (ACHN renal) was 2820 nM and the TGI (ACHN renal) was over 53100 nM. The GI50 (NCI-H460 lung) was 348 nM, the TGI (NCI-H460 lung) was 4370 nM and the GI50 (MDA-MB-231 breast) was 2580 nM. It also gave a TGI (MDA-MB-231 breast) of over 60300 nM and a GI50 (NCI-H522 lung) of 956 nM.
